Assay [1] concerns PC-3 (AR−) prostate tumors. Kind of assay: Antitumor activity in mice bearing subcutaneously xenografted PC-3 prostate tumors. It counts as in vivo, nude mice. To be noted: PC-3 (AR−) s.c. xenograft, 21-days s.c. continuous infusion by osmotic pump. From the text: (§1) Animal Models. Five or six-week old male nude mice were purchased from SPF Biotechnology Co., Ltd. (Beijing, China). The prostate tumor cell suspensions (PC-3 or 22RV1) were grafted subcutaneously into the flank of nude mice at a concentration of 3×10^6 cells/mouse. Eight mice whose tumor volumes length×width^2×0.5 (length×width^2×0.5) reached approximately 100 mm^3 were divided into groups. For 21-days subcutaneous (s.c.) continuous infusion, an osmotic pump containing YM155 was implanted in the dorsum of each animal. Body weight and tumor diameter were measured every 3-4 days. The results are shown in FIG. 6A (AR^−) and 6B (AR^+). Anti-tumor activities are expressed as percent inhibition of tumor growth. The percent inhibition of tumor growth on day 21/28 was calculated using following formula: Mean % Inhibition=(mean (Control)−mean (YM155))/mean (Control)*100%. The treatment was started at day 0; vertical bars, SEM.

For assay [2], the system named is 22RV1 (AR+) prostate tumors. The assay can be described thus: Antitumor activity in mice bearing subcutaneously xenografted 22RV1 prostate tumors. To be noted: 22RV1 (AR+) s.c. xenograft; 21-days s.c. continuous infusion by osmotic pump. It counts as in vivo, nude mice.
Excerpt: as §1

Assay [3] deals with AR− and AR+ prostate carcinoma cells (PC-3, DU145, 22Rv1, LNCaP, VcaP, LNCaP clone FGC). The assay can be described thus: Cell treatment and proliferation assay with high content imaging. It is filed as cell-based, human. The note with it: 6.25-100 nM for 72 hrs (FIG. 2); 10 nM for 2-72 hrs (FIGS. 3A-3B). Here is the method: Cell Treatment and proliferation assay. PC-3 and DU145 cells were seeded in 96-well plates (Corning, USA) at 2000 cells/well; LNCaP, VcaP, and LNCaP clone FGC cells were seeded at 5000 cells/well; and 22Rv1 cells were seeded at 3000 cells/well. Cells were treated with 10 nM YM155 or 0.1% DMSO (VWR, USA) for different times (2, 6, 24, 48, and 72 hrs). DU145 cells were also treated with YM155 (10 nM) in further combination with etoposide (0.2 ∪M)+carboplatin (2 ∪M), etoposide (0.2 ∪M)+cisplatin (2 μM), or docetaxel (0.005 μM)+carboplatin (2 μM). At indicated times, cells were fixed with Formaldehyde (final concentration at 4 or 5%; Thermo, USA) for 30-40 minutes at room temperature. The cells were washed three times with PBS (Cellmax, China), then blocked and permeabilized with 3% BSA (Sigma, USA) in 0.5% Triton X-100 (Sigma, USA) for 2 hrs at room temperature. After discarding the supernatant, the cells were incubated with DAPI (Beyotime, China) for 10 minutes at room temperature, then washed again three times with PBS. The cells were kept in PBS and protected from light throughout experiments. The treated cells were scanned for image acquisition with CellInsight™ CX5 High-Content Screening (HSC) Platform (Thermo Fisher), equipped with filters for DAPI (Ex: 386 nm).
PC-3, DU145, 22Rv1, LNCaP, VcaP, and LNCaP clone FGC cells were seeded in 96-well plates at 2000 cells/well. […]

Regarding “1-(2-Methoxyethyl)-2-methyl-4,9-dioxo-3-(pyrazin-2-ylmethyl)-4,9-dihydro-1H-naphtho [2,3-d] imidazolium bromide [YM155]”, the “percent inhibition of tumor growth relative to control” value in assay [1] (day 21) came to 89.62%; in assay [1] (day 28), 93.63%. In assay [2], the “activity towards tumor growth relative to control” value was “no significant difference”. Moreover, the “sensitivity of AR− versus AR+ prostate carcinoma cells to treatment (total cell count)” value in assay [3] is reported as “more sensitive”.

Source of the values: patent US20240382476A1, “ANDROGEN RECEPTOR BIOMARKERS FOR CANCER THERAPY” (priority 2021, published 2024).
